This note sets out measurements from ChEMBL document CHEMBL4414583, “Octahydro-Protoberberine and Protoemetine-Type Alkaloids from the Stems of Alangium salviifolium and Their Cytotoxicity” (J Nat Prod, 2019).

Bounds are passed on as bounds.

Assay type in all cases: functional, cell-based
One assay deals with HeLa. Briefly: Cytotoxicity against human HeLa cells assessed as reduction in cell viability incubated for 72 hrs by MTT assay.
A further assay relates to SK-OV-3. Kind of assay: Cytotoxicity against human SKOV3 cells assessed as reduction in cell viability incubated for 72 hrs by MTT assay. Particulars: SK-OV-3, 72 h.
A further assay has as its system A549. Kind of assay: Cytotoxicity against human A549 cells assessed as reduction in cell viability incubated for 72 hrs by MTT assay. Particulars: A549, 72 h. In general terms: Tetrazolium dyes change colour on reduction, which living cells bring about.

As to `CC[C@H]1CN2CCc3cc(OC)c(OC)cc3[C@@H]2C[C@@H]1C[C@H]1NCCc2cc(O)c(OC)cc21` [CEPHAELINE], the IC50 (in general, the concentration at which inhibition is half-maximal) in the assay on HeLa worked out at 7600 nM; with SK-OV-3, 100 nM; in the assay on A549, 3000 nM.

Turning to `CC[C@H]1CN2CCc3cc(OC)c(OC)cc3[C@@H]2C[C@@H]1C[C@H]1NCCc2c1[nH]c1ccccc21`, the results for the IC50 with HeLa and in the assay with SK-OV-3 were 100 nM and 3 nM, respectively.

Take `COc1cc2c(cc1O)[C@@H]1C[C@@H]3CC=CC[C@H]3CN1CC2`: the IC50 with HeLa came to 9200 nM; in the assay on SK-OV-3 it was 13900 nM; in the assay with A549 it was 12500 nM.

On to `CC[C@H]1CN2CCc3c(cc(OC)c(OC)c3O)[C@@H]2C[C@@H]1C/C=[N+](/[O-])CC`, for which the IC50 in the assay with HeLa is > 10000 nM; in the assay on SK-OV-3, 5200 nM; in the assay with A549, > 10000 nM.

With `CC[C@H]1CN2CCc3cc(OC)c(OC)cc3[C@@H]2C[C@@H]1C[C@H]1NCCc2c1[nH]c1ccc(O)cc21` [TUBULOSINE], the IC50 in the assay with HeLa is > 10000 nM; in the assay on SK-OV-3 it was 400 nM; in the assay on A549 it was 2100 nM.

As to `CC[C@H]1CN2CCc3c(cc(OC)c(OC)c3O)[C@@H]2C[C@@H]1CCO`, the values for the IC50 in the assay with HeLa, in the assay on SK-OV-3 and with A549 were 5300 nM, 3600 nM and 2100 nM, respectively.

As to `CO[C@@H]1C=C[C@@]23c4cc5c(cc4CN(C[C@@H]2O)[C@H]3C1)OCO5` [(+)-HAEMANTHAMINE], the IC50 in the assay with HeLa stood at 1300 nM; in the assay on SK-OV-3, 3700 nM; in the assay on A549, 3000 nM.

Take `CC[C@H]1CN2CCc3cc(OC)c(OC)cc3[C@@H]2C[C@@H]1CCO`: the results for the IC50 in the assay on HeLa, with SK-OV-3 and in the assay on A549 were 1200 nM, 100 nM and 300 nM, respectively.

Take `CC[C@H]1CN2CCc3cc(OC)c(OC)cc3[C@@H]2C[C@@H]1C[C@@H]1NCCc2cc(O)c(OC)cc21` [ISOCEPHAELINE]: the results for the IC50 in the assay on HeLa, in the assay with SK-OV-3 and in the assay on A549 were 9400 nM, 3900 nM and 2700 nM, respectively.

On to `CC[C@H]1CN2CCc3c(cc(OC)c(OC)c3O)[C@@H]2C[C@@H]1C[C@H]1NCCc2c1[nH]c1ccccc21`, for which the IC50 in the assay with HeLa came to 8200 nM; in the assay on SK-OV-3, 200 nM; with A549 it was 3000 nM.

On to `CC[C@H]1CN2CCc3cc(OC)c(O)cc3[C@@H]2C[C@@H]1CCO`, for which the IC50 worked out at 10 nM in the assay with HeLa, 60 nM with SK-OV-3 and 200 nM in the assay on A549.
